Laboratory results from patent US10596212B2, “Mangifera indica as a Sirtuin 1 activating agent” (Vital Solutions Swiss AG, priority 2014, dated 2020).

Target: T1, human recombinant SIRT1 (Homo sapiens, UniProt Q96EB6)
T1 construct: purchased Cayman Chemical
T1 sequence (Q96EB6 1-747): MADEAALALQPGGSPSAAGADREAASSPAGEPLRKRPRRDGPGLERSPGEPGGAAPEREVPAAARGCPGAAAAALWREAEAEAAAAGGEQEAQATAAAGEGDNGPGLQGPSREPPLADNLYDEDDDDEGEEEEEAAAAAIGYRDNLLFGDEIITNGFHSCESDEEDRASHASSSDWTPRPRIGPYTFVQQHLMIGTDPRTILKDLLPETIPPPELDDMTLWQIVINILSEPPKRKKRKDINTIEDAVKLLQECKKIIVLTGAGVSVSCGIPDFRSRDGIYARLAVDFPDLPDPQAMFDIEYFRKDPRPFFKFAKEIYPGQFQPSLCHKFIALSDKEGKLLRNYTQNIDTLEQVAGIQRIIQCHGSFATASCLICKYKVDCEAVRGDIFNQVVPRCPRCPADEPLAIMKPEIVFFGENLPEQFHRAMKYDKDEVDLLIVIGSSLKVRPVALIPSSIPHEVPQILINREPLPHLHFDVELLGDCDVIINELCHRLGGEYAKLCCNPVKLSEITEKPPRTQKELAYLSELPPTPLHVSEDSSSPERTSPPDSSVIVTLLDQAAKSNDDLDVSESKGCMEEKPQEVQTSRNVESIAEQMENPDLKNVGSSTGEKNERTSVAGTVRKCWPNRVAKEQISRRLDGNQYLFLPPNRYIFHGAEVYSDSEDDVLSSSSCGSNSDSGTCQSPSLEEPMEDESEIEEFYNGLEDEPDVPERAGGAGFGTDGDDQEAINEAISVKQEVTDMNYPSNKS
Test: SIRT1 Direct Fluorescent Screening Assay (Cayman Chemical), SIRT1 activation
Assay type: biochemical
Details: positive control, working concentration 1 mM, final assay concentration 32.5 μg/ml
Protocol: The assay was performed using SIRT1 Direct Fluorescent Screening Assay kit, (Cayman Chemical). In the assay resveratrol was used as a positive comparative control in the working concentration of 1 mM, or 228 μg/ml corresponding to a final assay concentration of 32.5 μg/ml.
Cayman's SIRT1 Direct Fluorescent Screening Assay Kit is fluorescence-based method for screening SIRT1 inhibitors or activators. In the first step, the substrate is incubated with human recombinant SIRT1 along with its co-substrate NAD+. Deacetylation sensitizes the substrate such that treatment with the developer in the second step releases a fluorescent product. The fluorophore is analyzed using an excitation wavelength of 350-360 nm and an emission wavelength of 450-465 nm.
The activation is calculated as % activation=(Sample−Initial Activity)/Initial Activity*100.

Oc1ccc(C=Cc2cc(O)cc(O)c2)cc1 [resveratrol]
activation of SIRT1: 37.5%
